Measurements: paper PMC7026418, “The kinase polypharmacology landscape of clinical PARP inhibitors” (Scientific Reports, 2020)
Read-outs that look alike come from different tables or passages of the source. Blank lines part the entries; values can stand above or below the molecule they belong to.

What was measured:
Experiment in all cases: biochemical
Set-up in all cases: DiscoveRx KINOMEscan active site-directed competition binding; percent of control kinase bound to immobilised ligand
[1] = target: T1, MKK7 (Homo sapiens, UniProt O14733)
T1 construct: gene MAP2K7
T1 sequence (O14733 1-419): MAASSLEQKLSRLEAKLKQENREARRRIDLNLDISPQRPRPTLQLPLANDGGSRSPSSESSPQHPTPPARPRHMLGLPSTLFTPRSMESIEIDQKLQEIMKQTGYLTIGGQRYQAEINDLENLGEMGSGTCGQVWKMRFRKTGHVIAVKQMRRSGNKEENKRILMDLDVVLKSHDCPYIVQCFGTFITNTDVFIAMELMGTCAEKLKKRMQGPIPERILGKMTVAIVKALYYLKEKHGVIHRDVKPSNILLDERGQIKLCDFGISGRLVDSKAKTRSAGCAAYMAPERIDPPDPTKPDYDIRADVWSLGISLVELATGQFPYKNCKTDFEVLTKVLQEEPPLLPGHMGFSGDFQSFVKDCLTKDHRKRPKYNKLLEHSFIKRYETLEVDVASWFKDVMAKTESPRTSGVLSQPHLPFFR

[2] = target: CAMK1G (Homo sapiens, UniProt Q96NX5)
[3] = target: T2, MAP4K2 (Homo sapiens, UniProt Q12851)
T2 sequence (Q12851 1-820): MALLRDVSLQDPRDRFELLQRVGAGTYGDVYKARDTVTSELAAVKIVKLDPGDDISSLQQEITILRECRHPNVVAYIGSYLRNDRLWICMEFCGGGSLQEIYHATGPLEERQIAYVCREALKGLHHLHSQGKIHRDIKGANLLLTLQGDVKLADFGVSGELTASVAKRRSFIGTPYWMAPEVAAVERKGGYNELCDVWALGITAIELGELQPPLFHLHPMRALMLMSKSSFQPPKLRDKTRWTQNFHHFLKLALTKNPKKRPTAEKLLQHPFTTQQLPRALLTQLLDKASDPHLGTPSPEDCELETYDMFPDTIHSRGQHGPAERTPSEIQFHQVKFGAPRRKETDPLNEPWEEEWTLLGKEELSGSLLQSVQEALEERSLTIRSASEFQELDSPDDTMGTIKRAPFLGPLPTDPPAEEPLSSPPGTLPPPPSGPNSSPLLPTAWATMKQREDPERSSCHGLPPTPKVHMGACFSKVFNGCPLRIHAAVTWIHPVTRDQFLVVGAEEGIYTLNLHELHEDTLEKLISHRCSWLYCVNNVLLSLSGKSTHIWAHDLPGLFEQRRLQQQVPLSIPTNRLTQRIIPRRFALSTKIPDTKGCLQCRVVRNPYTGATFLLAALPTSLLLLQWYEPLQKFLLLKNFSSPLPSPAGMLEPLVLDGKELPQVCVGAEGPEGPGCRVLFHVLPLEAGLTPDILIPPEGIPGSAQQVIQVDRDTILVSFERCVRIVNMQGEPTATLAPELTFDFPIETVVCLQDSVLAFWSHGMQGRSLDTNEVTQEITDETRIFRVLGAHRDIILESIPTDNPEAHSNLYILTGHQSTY

[4] = target: T3, DRAK2 (Homo sapiens, UniProt O94768)
T3 construct: gene STK17B
T3 sequence (O94768 1-372): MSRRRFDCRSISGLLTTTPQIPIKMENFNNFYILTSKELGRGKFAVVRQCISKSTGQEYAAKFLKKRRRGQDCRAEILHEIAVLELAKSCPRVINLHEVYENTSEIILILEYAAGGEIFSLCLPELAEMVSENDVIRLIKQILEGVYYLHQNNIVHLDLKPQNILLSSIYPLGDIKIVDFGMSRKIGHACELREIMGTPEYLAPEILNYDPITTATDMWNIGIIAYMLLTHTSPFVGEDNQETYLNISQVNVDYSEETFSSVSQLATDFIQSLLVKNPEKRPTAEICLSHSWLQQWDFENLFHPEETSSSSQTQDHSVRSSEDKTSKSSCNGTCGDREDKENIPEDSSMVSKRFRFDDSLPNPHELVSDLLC

[5] = target: PAK1 (Homo sapiens, UniProt Q13153)
[6] = target: PKN2 (Homo sapiens, UniProt Q16513)
[7] = target: ROCK2 (Homo sapiens, UniProt O75116)
[8] = read-out: Niraparib (MK-4827) / %Ctrl @ 10000nM
[9] = read-out: Rucaparib / %Ctrl @ 10000nM, binding competition, % of control
[10] = read-out: Olaparib / %Ctrl @ 10000nM
[11] = read-out: Talazoparib (BMN 673) / %Ctrl @ 10000nM

CAMK1G, sequence (Q96NX5 whole entry): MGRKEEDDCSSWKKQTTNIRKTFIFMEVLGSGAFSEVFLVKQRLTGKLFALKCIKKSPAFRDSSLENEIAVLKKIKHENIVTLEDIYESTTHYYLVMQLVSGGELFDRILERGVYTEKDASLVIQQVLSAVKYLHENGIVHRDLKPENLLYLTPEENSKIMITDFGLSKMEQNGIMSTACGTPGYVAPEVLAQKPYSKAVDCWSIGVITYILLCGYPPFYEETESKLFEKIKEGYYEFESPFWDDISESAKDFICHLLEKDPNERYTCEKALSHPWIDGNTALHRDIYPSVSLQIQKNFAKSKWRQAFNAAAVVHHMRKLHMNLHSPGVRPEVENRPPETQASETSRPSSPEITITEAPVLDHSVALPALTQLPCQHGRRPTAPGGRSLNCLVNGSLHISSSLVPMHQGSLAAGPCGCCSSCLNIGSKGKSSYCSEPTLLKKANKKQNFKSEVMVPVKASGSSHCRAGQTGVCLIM
ROCK2, sequence (O75116 whole entry): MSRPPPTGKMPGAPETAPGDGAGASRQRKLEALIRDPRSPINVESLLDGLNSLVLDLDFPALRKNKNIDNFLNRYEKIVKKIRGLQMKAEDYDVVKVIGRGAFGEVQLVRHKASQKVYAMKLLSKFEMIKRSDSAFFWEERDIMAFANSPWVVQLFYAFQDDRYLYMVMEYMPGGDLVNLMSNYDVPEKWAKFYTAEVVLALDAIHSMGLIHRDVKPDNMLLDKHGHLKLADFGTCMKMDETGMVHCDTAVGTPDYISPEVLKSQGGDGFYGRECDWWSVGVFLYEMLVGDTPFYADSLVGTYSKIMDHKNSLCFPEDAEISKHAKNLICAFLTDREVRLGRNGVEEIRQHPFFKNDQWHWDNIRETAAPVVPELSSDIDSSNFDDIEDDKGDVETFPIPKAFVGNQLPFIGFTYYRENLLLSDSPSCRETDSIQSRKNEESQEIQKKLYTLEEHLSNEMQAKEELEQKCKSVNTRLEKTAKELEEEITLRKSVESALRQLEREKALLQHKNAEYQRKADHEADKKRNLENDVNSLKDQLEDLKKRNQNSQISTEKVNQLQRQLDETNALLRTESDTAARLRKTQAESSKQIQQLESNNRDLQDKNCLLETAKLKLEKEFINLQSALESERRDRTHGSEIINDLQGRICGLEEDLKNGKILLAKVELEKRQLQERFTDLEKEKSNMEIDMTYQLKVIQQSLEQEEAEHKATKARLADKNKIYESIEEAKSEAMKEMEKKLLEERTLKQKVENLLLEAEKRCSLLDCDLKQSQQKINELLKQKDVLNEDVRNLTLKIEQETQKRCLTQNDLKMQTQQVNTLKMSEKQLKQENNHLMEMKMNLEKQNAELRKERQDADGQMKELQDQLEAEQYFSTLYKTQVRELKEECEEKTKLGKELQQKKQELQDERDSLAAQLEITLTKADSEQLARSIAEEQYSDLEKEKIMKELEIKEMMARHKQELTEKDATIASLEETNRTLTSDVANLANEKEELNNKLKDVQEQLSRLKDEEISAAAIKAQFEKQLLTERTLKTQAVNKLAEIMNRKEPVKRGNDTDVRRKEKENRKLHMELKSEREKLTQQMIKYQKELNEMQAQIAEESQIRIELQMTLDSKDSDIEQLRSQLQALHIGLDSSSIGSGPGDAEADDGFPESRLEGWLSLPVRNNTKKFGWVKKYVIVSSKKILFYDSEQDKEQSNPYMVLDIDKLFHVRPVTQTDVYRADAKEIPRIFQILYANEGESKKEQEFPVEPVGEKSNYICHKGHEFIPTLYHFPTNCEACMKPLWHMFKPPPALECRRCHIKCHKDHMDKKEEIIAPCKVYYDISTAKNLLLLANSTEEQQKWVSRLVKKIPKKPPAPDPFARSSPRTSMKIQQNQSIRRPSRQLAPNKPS
PAK1, sequence (Q13153 whole entry): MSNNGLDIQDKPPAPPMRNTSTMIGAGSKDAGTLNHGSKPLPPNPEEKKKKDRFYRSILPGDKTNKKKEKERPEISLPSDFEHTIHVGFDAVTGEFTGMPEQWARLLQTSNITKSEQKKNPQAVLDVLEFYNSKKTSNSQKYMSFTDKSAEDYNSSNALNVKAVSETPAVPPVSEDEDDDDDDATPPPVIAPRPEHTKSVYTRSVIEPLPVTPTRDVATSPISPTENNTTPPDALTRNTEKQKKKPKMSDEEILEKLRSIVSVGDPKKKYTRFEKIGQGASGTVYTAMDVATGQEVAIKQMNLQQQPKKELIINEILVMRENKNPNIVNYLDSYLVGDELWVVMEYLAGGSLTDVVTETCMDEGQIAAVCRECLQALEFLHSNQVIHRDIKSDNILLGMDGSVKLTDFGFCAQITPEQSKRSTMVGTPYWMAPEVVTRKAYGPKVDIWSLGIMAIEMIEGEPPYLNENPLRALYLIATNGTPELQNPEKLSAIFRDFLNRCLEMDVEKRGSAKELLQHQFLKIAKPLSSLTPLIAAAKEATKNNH
PKN2, sequence (Q16513 whole entry): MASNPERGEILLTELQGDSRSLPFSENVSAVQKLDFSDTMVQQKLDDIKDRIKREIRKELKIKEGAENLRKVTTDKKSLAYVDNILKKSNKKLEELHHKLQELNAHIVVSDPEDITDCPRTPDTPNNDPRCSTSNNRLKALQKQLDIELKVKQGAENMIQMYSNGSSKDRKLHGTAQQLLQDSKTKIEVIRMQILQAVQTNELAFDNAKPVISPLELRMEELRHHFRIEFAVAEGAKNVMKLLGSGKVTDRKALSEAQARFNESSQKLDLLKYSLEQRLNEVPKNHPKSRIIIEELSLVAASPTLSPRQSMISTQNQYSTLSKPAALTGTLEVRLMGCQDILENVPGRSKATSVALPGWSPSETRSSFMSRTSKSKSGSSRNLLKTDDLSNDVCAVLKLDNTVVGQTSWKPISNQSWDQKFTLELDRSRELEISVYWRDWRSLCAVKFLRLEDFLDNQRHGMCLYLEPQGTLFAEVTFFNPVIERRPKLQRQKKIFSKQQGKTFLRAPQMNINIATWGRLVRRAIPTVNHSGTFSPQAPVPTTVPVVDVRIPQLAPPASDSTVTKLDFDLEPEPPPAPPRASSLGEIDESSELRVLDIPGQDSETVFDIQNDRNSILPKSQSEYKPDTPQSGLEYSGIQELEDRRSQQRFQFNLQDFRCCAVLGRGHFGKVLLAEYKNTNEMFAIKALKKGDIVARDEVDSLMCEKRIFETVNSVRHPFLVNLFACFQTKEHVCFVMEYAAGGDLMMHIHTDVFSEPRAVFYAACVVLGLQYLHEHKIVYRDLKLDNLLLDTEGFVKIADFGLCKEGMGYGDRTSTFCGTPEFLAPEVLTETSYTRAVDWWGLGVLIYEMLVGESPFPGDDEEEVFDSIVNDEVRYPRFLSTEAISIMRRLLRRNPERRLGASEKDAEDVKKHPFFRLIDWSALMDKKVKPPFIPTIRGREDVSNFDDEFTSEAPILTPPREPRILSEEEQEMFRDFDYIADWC

Structure (SMILES): NC(=O)c1cccc2cn(-c3ccc([C@@H]4CCCNC4)cc3)nc12 [Niraparib]
- percent of control binding at 10 µM [1, 8]: 100%
- percent of control binding at 10 µM [2, 8]: 100%
- percent of control binding at 10 µM [3, 8]: 83%
- percent of control binding at 10 µM [4, 8]: 82%
- percent of control binding at 10 µM [5, 8]: 86%
- percent of control binding at 10 µM [6, 8]: 95%
- percent of control binding at 10 µM [7, 8]: 73%

- percent of control binding at 10 µM [1, 9]: 100%
- percent of control binding at 10 µM [2, 9]: 89%
- percent of control binding at 10 µM [3, 9]: 79%
- percent of control binding at 10 µM [4, 9]: 98%
- percent of control binding at 10 µM [5, 9]: 75%
- percent of control binding at 10 µM [6, 9]: 99%
- percent of control binding at 10 µM [7, 9]: 85%
Structure (SMILES): CNCc1ccc(-c2[nH]c3cc(F)cc4c3c2CCNC4=O)cc1 [Rucaparib]

- percent of control binding at 10 µM [1, 10]: 98%
- percent of control binding at 10 µM [2, 10]: 93%
- percent of control binding at 10 µM [3, 10]: 97%
- percent of control binding at 10 µM [4, 10]: 69%
- percent of control binding at 10 µM [5, 10]: 91%
- percent of control binding at 10 µM [6, 10]: 100%
- percent of control binding at 10 µM [7, 10]: 75%
Structure (SMILES): O=C(c1cc(Cc2n[nH]c(=O)c3ccccc23)ccc1F)N1CCN(C(=O)C2CC2)CC1 [Olaparib]

- percent of control binding at 10 µM [1, 11]: 100%
- percent of control binding at 10 µM [2, 11]: 100%
- percent of control binding at 10 µM [3, 11]: 94%
- percent of control binding at 10 µM [4, 11]: 100%
- percent of control binding at 10 µM [5, 11]: 93%
- percent of control binding at 10 µM [6, 11]: 85%
- percent of control binding at 10 µM [7, 11]: 100%
Structure (SMILES): Cn1ncnc1[C@H]1c2n[nH]c(=O)c3cc(F)cc(c23)N[C@@H]1c1ccc(F)cc1 [Talazoparib]
